According to ChEMBL document CHEMBL5096219, “Design, synthesis and biological evaluation of novel pyrazinone derivatives as PI3K/HDAC dual inhibitors” (Bioorg Med Chem, 2022):

Legend:
MV4-11 [1] = assay: Induction of cell cycle arrest in human MV4-11 cells assessed as accumulation of cells at S phase at 450 nM incubated for 48 hrs by […]PI staining based flow cytometry (reference value: 45.5%); assay type: functional
[2] = biological target: Phosphatidylinositol 4,5-bisphosphate 3-kinase catalytic subunit alpha isoform (Homo sapiens, UniProt P42336); assay: Inhibition of PI3Kalpha (unknown origin) by mobility shift assay
Chain of Phosphatidylinositol 4,5-bisphosphate 3-kinase catalytic subunit alpha isoform (P42336 whole entry, canonical isoform): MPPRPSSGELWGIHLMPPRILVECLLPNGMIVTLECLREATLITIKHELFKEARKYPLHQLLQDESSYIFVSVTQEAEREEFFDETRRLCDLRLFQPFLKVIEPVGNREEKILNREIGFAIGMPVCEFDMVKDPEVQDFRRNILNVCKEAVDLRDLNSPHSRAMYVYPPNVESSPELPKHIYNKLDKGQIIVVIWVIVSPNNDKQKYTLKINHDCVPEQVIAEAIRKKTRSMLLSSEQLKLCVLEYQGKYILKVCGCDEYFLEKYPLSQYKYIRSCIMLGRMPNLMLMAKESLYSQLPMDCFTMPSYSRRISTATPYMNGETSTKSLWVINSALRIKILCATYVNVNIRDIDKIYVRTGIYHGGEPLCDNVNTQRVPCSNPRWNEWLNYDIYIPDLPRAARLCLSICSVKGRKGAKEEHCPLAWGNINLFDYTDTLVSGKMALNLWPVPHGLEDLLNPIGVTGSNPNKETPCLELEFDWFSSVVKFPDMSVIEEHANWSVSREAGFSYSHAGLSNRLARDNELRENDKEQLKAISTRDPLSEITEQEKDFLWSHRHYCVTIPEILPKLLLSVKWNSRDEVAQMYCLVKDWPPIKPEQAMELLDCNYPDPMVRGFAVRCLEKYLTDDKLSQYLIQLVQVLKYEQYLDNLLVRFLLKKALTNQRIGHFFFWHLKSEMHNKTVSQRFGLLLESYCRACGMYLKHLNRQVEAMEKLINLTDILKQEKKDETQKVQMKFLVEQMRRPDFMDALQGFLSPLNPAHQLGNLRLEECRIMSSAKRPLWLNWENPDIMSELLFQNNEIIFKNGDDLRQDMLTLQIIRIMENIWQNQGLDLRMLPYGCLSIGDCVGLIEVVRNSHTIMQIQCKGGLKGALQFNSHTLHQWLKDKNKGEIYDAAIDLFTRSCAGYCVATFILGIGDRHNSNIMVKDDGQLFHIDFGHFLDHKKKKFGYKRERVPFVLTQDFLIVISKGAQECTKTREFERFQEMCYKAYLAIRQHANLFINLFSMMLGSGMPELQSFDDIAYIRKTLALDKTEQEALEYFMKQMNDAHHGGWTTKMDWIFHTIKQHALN

MV4-11 [3] = assay: Induction of apoptosis in human MV4-11 cells assessed as viable cells at 50 nM incubated for 48 hrs by Annexin V-FITC/PI staining based flow cytometry (reference value: 96.5%); assay type: functional; details: read-out: Activity
MV4-11 [4] = assay: Induction of apoptosis in human MV4-11 cells assessed as total apoptotic cells at 50 nM incubated for 48 hrs by Annexin V-FITC/PI staining based flow cytometry (reference value: 2.99%); assay type: functional
MV4-11 [5] = assay: Induction of apoptosis in human MV4-11 cells assessed as total apoptotic cells at 450 nM incubated for 48 hrs by Annexin V-FITC/PI staining based flow cytometry (reference value: 2.99%); assay type: functional
MV4-11 [6] = assay: Induction of apoptosis in human MV4-11 cells assessed as necrotic cells at 50 nM incubated for 48 hrs by Annexin V-FITC/PI staining based flow cytometry (reference value: 0.51%); assay type: functional
HCT-116 = assay: Antiproliferative activity against human HCT-116 cells assessed as inhibition of cell proliferation incubated for 72 hrs by MTT assay; assay type: functional, cell-based; details: HCT-116, 72 h
MV4-11 [7] = assay: Induction of cell cycle arrest in human MV4-11 cells assessed as accumulation of cells at G2/M phase at 150 nM incubated for 48 hrs by […]PI staining based flow cytometry (reference value: 11.5%); assay type: functional
HGC-27 = assay: Antiproliferative activity against human HGC-27 cells assessed as inhibition of cell proliferation incubated for 72 hrs by MTT assay; assay type: functional, cell-based; details: HGC-27, 72 h
MV4-11 [8] = assay: Induction of apoptosis in human MV4-11 cells assessed as viable cells at 150 nM incubated for 48 hrs by Annexin V-FITC/PI staining based flow cytometry (reference value: 96.5%); assay type: functional; details: read-out: Activity
MCF7 = assay: Antiproliferative activity against human MCF7 cells assessed as inhibition of cell proliferation incubated for 72 hrs by MTT assay; assay type: functional, cell-based; details: MCF7, 72 h
MV4-11 [9] = assay: Induction of apoptosis in human MV4-11 cells assessed as early apoptotic cells at 50 nM incubated for 48 hrs by Annexin V-FITC/PI staining based flow cytometry (reference value: 0.95%); assay type: functional
MV4-11 [10] = assay: Induction of apoptosis in human MV4-11 cells assessed as early apoptotic cells at 150 nM incubated for 48 hrs by Annexin V-FITC/PI staining based flow cytometry (reference value: 0.95%); assay type: functional
[11] = biological target: T1, Protein deacetylase HDAC6 (Homo sapiens) (UniProt Q9UBN7); assay: Inhibition of HDAC6 in human MV4-11 cells assessed as increase in acetylated alpha-tubulin level incubated for 24 hrs by western blot analysis; assay type: cell-based; details: dose 0.05-0.45 µM, DDE = dose-dependent effect
T1 sequence (whole entry): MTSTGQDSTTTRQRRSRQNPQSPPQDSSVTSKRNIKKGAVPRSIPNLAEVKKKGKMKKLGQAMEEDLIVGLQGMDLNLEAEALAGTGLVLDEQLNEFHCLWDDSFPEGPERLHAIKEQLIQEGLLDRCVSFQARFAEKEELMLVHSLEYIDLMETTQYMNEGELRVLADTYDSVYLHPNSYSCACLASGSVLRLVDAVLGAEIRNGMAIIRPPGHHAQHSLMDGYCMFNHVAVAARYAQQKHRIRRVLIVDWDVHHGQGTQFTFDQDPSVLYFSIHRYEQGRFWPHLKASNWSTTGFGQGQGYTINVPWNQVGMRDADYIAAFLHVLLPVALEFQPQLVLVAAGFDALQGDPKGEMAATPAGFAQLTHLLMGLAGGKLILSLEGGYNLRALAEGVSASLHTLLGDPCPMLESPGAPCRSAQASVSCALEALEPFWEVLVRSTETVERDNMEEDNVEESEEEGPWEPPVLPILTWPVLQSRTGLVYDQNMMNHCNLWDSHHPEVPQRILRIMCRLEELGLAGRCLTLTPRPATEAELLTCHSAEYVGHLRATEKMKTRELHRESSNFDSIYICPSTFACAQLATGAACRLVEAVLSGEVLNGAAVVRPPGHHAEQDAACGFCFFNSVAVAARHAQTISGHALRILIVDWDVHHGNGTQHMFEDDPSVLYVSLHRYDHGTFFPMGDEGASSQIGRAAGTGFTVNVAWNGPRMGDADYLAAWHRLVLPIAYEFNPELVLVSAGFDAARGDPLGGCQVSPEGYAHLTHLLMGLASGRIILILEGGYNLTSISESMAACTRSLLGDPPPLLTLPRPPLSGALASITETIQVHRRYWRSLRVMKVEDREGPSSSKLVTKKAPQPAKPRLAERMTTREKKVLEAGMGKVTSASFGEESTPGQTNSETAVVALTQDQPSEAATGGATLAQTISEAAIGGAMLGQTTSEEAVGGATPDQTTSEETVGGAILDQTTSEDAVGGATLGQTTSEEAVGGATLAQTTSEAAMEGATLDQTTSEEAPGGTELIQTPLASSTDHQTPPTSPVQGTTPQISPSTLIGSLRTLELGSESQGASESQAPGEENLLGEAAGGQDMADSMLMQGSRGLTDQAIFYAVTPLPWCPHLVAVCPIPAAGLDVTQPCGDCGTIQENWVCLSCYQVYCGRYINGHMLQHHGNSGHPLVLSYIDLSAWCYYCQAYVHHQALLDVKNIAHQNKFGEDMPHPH

HL-60 = assay: cells; assay type: functional, cell-based; details: Homo sapiens, HL-60, 72 h
Description: Antiproliferative activity against human HL-60 cells assessed as inhibition of cell proliferation incubated for 72 hrs by CCK8 assay

HepG2 = assay: Antiproliferative activity against human HepG2 cells assessed as inhibition of cell proliferation incubated for 72 hrs by MTT assay; assay type: functional, cell-based; details: HepG2, 72 h
MV4-11 [12] = assay: Induction of cell cycle arrest in human MV4-11 cells assessed as accumulation of cells at G0/G1 phase at 1350 nM incubated for 48 hrs by […]PI staining based flow cytometry (reference value: 33.1%); assay type: functional
MV4-11 [13] = assay: Induction of apoptosis in human MV4-11 cells assessed as late apoptotic cells at 50 nM incubated for 48 hrs by Annexin V-FITC/PI staining based flow cytometry (reference value: 2.04%); assay type: functional
A549 = assay: Antiproliferative activity against human A549 cells assessed as inhibition of cell proliferation incubated for 72 hrs by MTT assay; assay type: functional, cell-based; details: A549, 72 h

O=C(NO)c1ccc(Cn2cc(-c3cccc4[nH]ncc34)nc(N3CCOCC3)c2=O)cc1
Activity (MV4-11 [1]): 34.9% | IC50 [2]: 373 nM | viability at 0.05 µM (MV4-11 [3]): 92.5% | Activity (MV4-11 [4]): 7.2% | Activity (MV4-11 [5]): 80.7% | Activity (MV4-11 [6]): 0.34% | IC50 (HCT-116): 16400 nM | Activity (MV4-11 [7]): 32.9% | IC50 (HGC-27): 880 nM | viability at 0.15 µM (MV4-11 [8]): 79.6% | IC50 (MCF7): 400 nM | Activity (MV4-11 [9]): 3.53% | Activity (MV4-11 [10]): 2.44% | inhibition [11]: Dde | IC50 (HL-60): 350 nM | IC50 (HepG2): 1190 nM | Activity (MV4-11 [12]): 15.2% | Activity (MV4-11 [13]): 3.67% | IC50 (A549): 11000 nM
